Measurements reported in patent US11045457B2, “Piperidinyl-3-(aryloxy)propanamides and propanoates” (priority 2018, dated 2021).

Columns and labels:
SSTR4 [1] = target: T1, SSTR4 (Homo sapiens (Human), UniProt P31391); experiment: SSTR4 I-125 somatostatin competition binding assay (membranes from CHO-K1 cells overexpressing SSTR4); settings: competition with I-125 labeled somatostatin; for IC50: read-out: SSTR4 Binding pIC50 (converted)
SSTR1 = SSTR1 (Homo sapiens (Human), UniProt P30872); experiment: SSTR1 I-125 somatostatin competition binding assay for selectivity versus SSTR4 (membranes from CHO-K1 cells overexpressing SSTR1); settings: for SSTR1 Binding pIC50: competition with I-125 labeled somatostatin, CHO-K1 SSTR1 membranes;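 as to all read-outs here: Filter-based radioligand binding, bound label counted by scintillation after 60 min incubation at room temperature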
Procedure: Membranes from CHO-K1 cells overexpressing SSTR1 are purchased from Perkin Elmer (catalog number ES-520-M400UA). […] Then 10 μg of SSTR1 membranes in 50 μL assay buffer are added per well. The plate is incubated for 60 minutes at room temperature. […] The contents of the assay plate are transferred to filters with a TomTech harvester and washed 5 times with 20 mM HEPES, 100 mM NaCl. […] The scintillator sheets are melted to the filters using a heat block. The filters are then read in a MicroBeta scintillation counter. Binding Ki curves are generated using Activity Base for Screening Data Management and the results are reported as pIC50.

SSTR4 [2] = target: T1, SSTR4; experiment: Inhibition of forskolin stimulated cAMP in CHO-K1 cells overexpressing SSTR4; type: cell-based; settings: for EC50: read-out: SSTR4 Activity pEC50 (converted)
How it was run: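 Read-out is a HTRF LANCE Ultra cAMP competition using Eu-labelled streptavidin and biotin-cAMP, incubated 60 min at room temperature. It followed a 30 min room-temperature exposure of Kreb's Ringer-washed cells to compound plus forskolin. Potency is expressed as pEC50.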

Sequence of SSTR1 (P30872 whole entry): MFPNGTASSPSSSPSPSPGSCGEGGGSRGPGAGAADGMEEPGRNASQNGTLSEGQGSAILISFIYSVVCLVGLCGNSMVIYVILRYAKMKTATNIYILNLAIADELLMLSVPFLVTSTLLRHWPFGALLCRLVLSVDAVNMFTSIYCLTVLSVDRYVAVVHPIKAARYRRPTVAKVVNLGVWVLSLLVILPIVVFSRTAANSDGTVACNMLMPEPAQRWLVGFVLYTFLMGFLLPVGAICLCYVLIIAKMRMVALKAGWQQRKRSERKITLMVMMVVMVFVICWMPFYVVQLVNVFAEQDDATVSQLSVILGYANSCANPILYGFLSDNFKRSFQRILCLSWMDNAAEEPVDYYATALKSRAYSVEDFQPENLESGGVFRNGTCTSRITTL
T1 sequence (P31391 whole entry): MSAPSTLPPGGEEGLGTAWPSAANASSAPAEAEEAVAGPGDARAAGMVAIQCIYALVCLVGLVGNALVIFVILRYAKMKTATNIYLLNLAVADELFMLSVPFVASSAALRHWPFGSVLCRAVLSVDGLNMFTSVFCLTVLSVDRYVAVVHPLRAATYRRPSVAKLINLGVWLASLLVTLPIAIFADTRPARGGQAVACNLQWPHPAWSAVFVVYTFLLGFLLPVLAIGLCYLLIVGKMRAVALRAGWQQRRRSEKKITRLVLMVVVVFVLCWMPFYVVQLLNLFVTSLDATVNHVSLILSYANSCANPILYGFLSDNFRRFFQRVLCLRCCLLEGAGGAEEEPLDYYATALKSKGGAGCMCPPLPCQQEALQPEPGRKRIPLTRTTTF

Row | IC50 (SSTR4 [1]) [nM] | IC50 (SSTR1) [nM] | EC50 (SSTR4 [2]) [nM] | SMILES | SSTR4 Binding pIC50 (SSTR4 [1]) | SSTR1 Binding pIC50 (SSTR1) | SSTR4 Activity pEC50 (SSTR4 [2])
1 | – | – | – | C[C@H]1CN(C)CC[C@@H]1NC(=O)C(C)(C)COc1ccccc1F [Example 202, N-((3S,4S)-1,3-dimethylpiperidin-4-yl)-3-(2-fluorophenoxy)-2,2-dimethylpropanamide] | 7.0 | 5.0 | 7.1
2 | – | – | – | Cc1ccccc1[C@@H]1CNCC[C@@H]1N(C)C(=O)C(C)(C)COc1ncccc1C(F)(F)F (relative stereo) [Example 156, N,2,2-trimethyl-N-(cis-3-(o-tolyl)piperidin-4-yl)-3-((3-(trifluoromethyl)pyridin-2-yl)oxy)propanamide] | 6.4 | 4.6 | 7.2
3 | – | – | – | Cc1cccnc1OCC(C)(C)C(=O)N[C@@H]1CN(C)C[C@H]1c1cn(C)nc1C (relative stereo) [Example 23, trans-N-(4-(1,3-dimethyl-1H-pyrazol-4-yl)-1-methylpyrrolidin-3-yl)-2,2-dimethyl-3-((3-methylpyridin-2-yl)oxy)propanamide] | 6.6 | 5.8 | 8.0
4 | – | – | – | CN1C[C@@H](NC(=O)C(C)(C)COc2ncccc2C2CC2)[C@H](c2cnn(C)c2)C1 (relative stereo) [Example 22, trans-3-((3-cyclopropylpyridin-2-yl)oxy)-2,2-dimethyl-N-(1-methyl-4-(1-methyl-1H-pyrazol-4-yl)pyrrolidin-3-yl)propanamide] | 7.0 | 6.0 | 7.9
5 | – | – | – | C[C@H]1CNCC[C@@H]1NC(=O)C(F)(F)COc1ncccc1C1CC1 [Example 209, 3-((3-cyclopropylpyridin-2-yl)oxy)-2,2-difluoro-N-((3S,4S)-3-methylpiperidin-4-yl)propanamide] | 7.6 | 4.9 | 9.2
6 | – | – | – | C[C@H]1CNCC[C@@H]1NC(=O)C(C)(C)COc1ccccc1Cl [Example 190, 3-(2-chlorophenoxy)-2,2-dimethyl-N-((3S,4S)-3-methylpiperidin-4-yl)propanamide] | 7.6 | 5.3 | 9.8
7 | – | – | – | CN1CCC(NC(=O)C(C)(C)COc2ccccc2Cl)CC1 [Example 66, 3-(2-chlorophenoxy)-2,2-dimethyl-N-(1-methylpiperidin-4-yl)propanamide] | 7.0 | 4.9 | 7.7
8 | 158 | 3160 | 20 | CC(C)[C@@H]1CN(C)C[C@H]1NC(=O)C(C)(C)COc1ncccc1C(F)(F)F (racemic) [Example 15, trans-N-(4-isopropyl-1-methylpyrrolidin-3-yl)-2,2-dimethyl-3-((3-(trifluoromethyl)pyridin-2-yl)oxy)propanamide] | – | – | –
9 | – | – | – | Cc1nn(C)cc1[C@@H]1CN(C)C[C@H]1NC(=O)C(C)(C)COc1ncccc1OC(F)(F)F (relative stereo) [Example 29, trans-N-(4-(1,3-dimethyl-1H-pyrazol-4-yl)-1-methylpyrrolidin-3-yl)-2,2-dimethyl-3-((3-(trifluoromethoxy)pyridin-2-yl)oxy)propanamide] | 7.4 | 6.4 | 8.4
10 | – | – | – | C[C@H]1C[C@@H](NC(=O)C(C)(C)COc2ncccc2OC(F)(F)F)CCN1C (relative stereo) [Example 136, cis-N-(1,2-dimethylpiperidin-4-yl)-2,2-dimethyl-3-((3-(trifluoromethoxy)pyridin-2-yl)oxy)propanamide] | 7.1 | 4.8 | 8.1
11 | – | – | – | Cc1c([C@@H]2CN(C)C[C@H]2NC(=O)C(C)(C)COc2ncccc2OC(F)(F)F)cnn1C (relative stereo) [Example 30, trans-N-(4-(1,5-dimethyl-1H-pyrazol-4-yl)-1-methylpyrrolidin-3-yl)-2,2-dimethyl-3-((3-(trifluoromethoxy)pyridin-2-yl)oxy)propanamide] | 7.8 | 6.9 | 9.0
12 | – | – | – | C[C@H]1C[C@@H](NC(=O)C(C)(C)COc2ncccc2OC(F)(F)F)CCN1C [Example 152, N-((2S,4S)-1,2-dimethylpiperidin-4-yl)-2,2-dimethyl-3-((3-(trifluoromethoxy)pyridin-2-yl)oxy)propanamide] | 6.6 | 4.6 | 7.0
13 | – | – | – | CN1CCC(NC(=O)C(F)(F)COc2ccccc2Cl)CC1 [Example 215, 3-(2-chlorophenoxy)-2,2-difluoro-N-(1-methylpiperidin-4-yl)propanamide] | 6.0 | – | 6.7
14 | 794 | – | 158 | Cc1cccnc1OCC(F)(F)C(=O)N[C@@H]1CCN(C)C[C@H]1C (racemic) [Example 199, N-(trans-1,3-dimethylpiperidin-4-yl)-2,2-difluoro-3-((3-methylpyridin-2-yl)oxy)propanamide] | – | – | –
15 | – | – | – | C[C@H]1CN(C)CC[C@@H]1NC(=O)C(C)(C)COc1ncccc1OC(F)(F)F [Example 107, N-((3S,4S)-1,3-dimethylpiperidin-4-yl)-2,2-dimethyl-3-((3-(trifluoromethoxy)pyridin-2-yl)oxy)propanamide] | 7.7 | – | 8.7
16 | – | – | – | CCOc1ccccc1OCC(C)(C)C(=O)NC1CCN(C)CC1 [Example 78, 3-(2-ethoxyphenoxy)-2,2-dimethyl-N-(1-methylpiperidin-4-yl)propanamide] | 6.7 | – | 7.4
17 | – | – | – | Cc1cnc(OCC(C)(C)C(=O)N[C@@H]2CCNC[C@H]2F)c(C)c1 [Example 214, 3-((3,5-dimethylpyridin-2-yl)oxy)-N-((3R,4R)-3-fluoropiperidin-4-yl)-2,2-dimethylpropanamide] | 6.8 | – | 8.2
18 | 5.01 | – | 0.631 | CC[C@@H]1CN(C)CC[C@H]1NC(=O)C(C)(C)COc1ncccc1OC(F)(F)F (racemic) [Example 115, N-(trans-3-ethyl-1-methylpiperidin-4-yl)-2,2-dimethyl-3-((3-(trifluoromethoxy)pyridin-2-yl)oxy)propanamide] | – | – | –
19 | 200 | – | 39.8 | Cc1ncccc1[C@@H]1CNCC[C@H]1OC(=O)C(C)(C)COc1ncccc1C(F)(F)F (racemic) [Example 170, trans-3-(2-methylpyridin-3-yl)piperidin-4-yl 2,2-dimethyl-3-((3-(trifluoromethyl)pyridin-2-yl)oxy)propanoate] | – | – | –
20 | – | – | – | C[C@H]1CN(C)CC[C@@H]1NC(=O)C(C)(C)COc1ncccc1C(F)(F)F [Example 105, N-((3S,4S)-1,3-dimethylpiperidin-4-yl)-2,2-dimethyl-3-((3-(trifluoromethyl)pyridin-2-yl)oxy)propanamide] | 7.2 | – | 8.1
21 | – | – | – | CC[C@@H]1CN(C)CC[C@H]1NC(=O)C(C)(C)COc1ncccc1C(F)(F)F (single isomer, unassigned) [Example 144] | 8.0 | – | 8.7
22 | – | – | – | C[C@@H]1CN(C)CC[C@H]1NC(=O)C(C)(C)COc1ncccc1C(F)(F)F (relative stereo) [Example 109, trans-N-(1,3-dimethylpiperidin-4-yl)-2,2-dimethyl-3-((3-(trifluoromethyl)pyridin-2-yl)oxy)propanamide] | 7.0 | – | 8.0
23 | – | – | – | CC[C@@H]1CN(C)CC[C@@H]1NC(=O)C(C)(C)COc1ncccc1C(F)(F)F (relative stereo) [Example 111, cis-N-(3-ethyl-1-methylpiperidin-4-yl)-2,2-dimethyl-3-((3-(trifluoromethyl)pyridin-2-yl)oxy)propanamide] | 6.7 | – | 7.7
24 | – | – | – | CC(C)(COc1ncccc1C(F)(F)F)C(=O)N[C@H]1CCNC[C@@H]1F [Example 158, N-((3S,4S)-3-fluoropiperidin-4-yl)-2,2-dimethyl-3-((3-(trifluoromethyl)pyridin-2-yl)oxy)propanamide] | 8.1 | – | 8.2
25 | – | – | – | O=C(N[C@H]1CCNC[C@@H]1F)C(F)(F)COc1ncccc1C(F)(F)F [Example 197, 2,2-difluoro-N-((3S,4S)-3-fluoropiperidin-4-yl)-3-((3-(trifluoromethyl)pyridin-2-yl)oxy)propanamide] | 7.0 | – | 7.7
26 | – | – | – | Cc1cnc(OCC(C)(C)C(=O)N[C@@H]2CCN(C)[C@H](C)C2)c(C)c1 [Example 218, N-((2R,4R)-1,2-dimethylpiperidin-4-yl)-3-((3,5-dimethylpyridin-2-yl)oxy)-2,2-dimethylpropanamide] | 6.2 | – | 7.5
27 | – | – | – | COc1cccnc1OCC(C)(C)C(=O)NC1CCN(C)CC1 [Example 49, 3-((3-methoxypyridin-2-yl)oxy)-2,2-dimethyl-N-(1-methylpiperidin-4-yl)propanamide] | 6.0 | – | 6.7
28 | – | – | – | C[C@@H]1CN(C)CC[C@H]1NC(=O)C(C)(C)COc1ncccc1C(F)(F)F (relative stereo) [Example 11, trans-N-(1,3-dimethylpiperidin-4-yl)-2,2-dimethyl-3-((3-(trifluoromethyl)pyridin-2-yl)oxy)propanamide] | 7.0 | – | 8.0
29 | – | – | – | CN1CC[C@H](NC(=O)C(C)(C)COc2ncccc2OC(F)(F)F)[C@H](c2ccccc2)C1 (relative stereo) [Example 166, 2,2-dimethyl-N-(cis-1-methyl-3-phenylpiperidin-4-yl)-3-((3-(trifluoromethoxy)pyridin-2-yl)oxy)propanamide] | 7.4 | 6.2 | –
